Earlier results as cited in patent publication US7700588B2, “Pharmaceutical compositions comprising midazolam in a high concentration” (priority 2004, dated 2010).
Where two headings read alike, the source gives them in different places.

Experiments:
[1] = nasal 0.2 mg/kg
[2] = not given; remark: listed apart in the source
[3] = system: intestinal drug efflux transporter; conditions: orally delivered
[4] = free base, pH 7.5
[5] = for mean absolute bioavailability: injection solutions
[6] = commercial intravenous solutions 5 mg/ml, pH 3.3 to 3.5
[7] = after nasal administration, 0.2 to 0.25 mg/kg

In the case of Cc1ncc2n1-c1ccc(Cl)cc1C(c1ccccc1F)=NC2 [midazolam], the “side effects in children” value [1] is listed as “none of the children had clinical signs of respiratory depression, bradycardia or other side effects”, the “share in the ring-closed form” value [6] is listed as 80-85% and the “share in the ring-open form” value [6] is listed as 15-20%. For the same molecule, the “state of the ring when pH is increased” value (pH increased to 7.4) was “completely closed”, the onset of action ([2]; intranasal, children and adults) was “about 10 minutes” and the “clinical effect in children undergoing diagnostic and minor surgical procedures” value ([2]; nasal 0.2 mg/kg) was “sedative and anxiolytic effects”. The “effect on seizures and EEG in epileptic children” value ([2]; nasal 0.2 mg/kg) was “suppresses acute seizures and improves the EEG background”, the transporter substrate [3] was “substrate for the intestinal drug efflux transporter” and the “partition coefficient between octanol and phosphate buffer” value [4] was “about 475”. The “time for which therapeutically effective plasma concentrations are maintained” value [5, 7] was “about 1 hour”, the “time until therapeutically effective plasma concentrations are manifest” value [5, 7] was 3 min and the “time to maximum plasma concentrations” value ([5]; intranasal) was 5 to 15 min. The mean absolute bioavailability ([5]; intranasal, adult surgical patients) was 83%, the mean absolute bioavailability ([5]; intranasal, children) was 50% and the mean absolute bioavailability ([5]; intranasal, healthy volunteers) was 55%.
